The source of these data is PubChem BioAssay AID1963984 (Molecular Pharmacology Branch, DTP, NCI, 2024).

By viability, T/C is commonly meant the ratio of treated to control. The term IC50 denotes the concentration at which inhibition is half-maximal.

The subject of this test is 233499-124-R-J3-PDC spheroids with HUVEC/MSC, viability. The test can be described thus: Anticancer human tumor 233499-124-R-J3-PDC patient-derived colon adenocarcinoma cell line growth inhibition [PI3K]. As to conditions: for viability, T/C: stronger effect = lower value. The text has this: Combinatorial screen of targeted agents with the PI3K inhibitors inavolisib, alpelisib, duvelisib, and copanlisib in multi-cell type tumor spheroids
A high-throughput screen of multi-cell type tumor spheroids was designed to identify active combinations of targeted small molecules and PI3K pathway inhibitors. Complex spheroids include a stromal component modeled by human endothelial cells (HUVEC) and fibroblasts modeled by human mesenchymal stem cells (MSCs). The concentration ranges selected for each drug and investigational agent were based upon clinically achievable concentrations if the clinical Cmax of the agent was known.
Compounds. The drugs and investigational agents: inavolisib (NSC800729), alpelisib (NSC765974), duvelisib (NSC772469), copanlisib (NSC816437), ipatasertib (NSC767898), afuresertib (NSC778305), talazoparib (NSC767125), sapanisertib (NSC764658), selumetinib (NSC741078), tovorafenib (DAY101, NSC766906), vemurafenib (NSC761431), ravoxertinib (NSC781343), sotorasib (NSC818433), MRTX1133 (NSC 836407), abemaciclib (NSC 768073), palbociclib (NSC758247), venetoclax (NSC 766270), SY5609 (NSC837396), enzalutamide (NSC755605), and darolutamide (NSC825331), were obtained from the National Cancer Institute (NCI) Developmental Therapeutics Program Chemical Repository. The FDA-approved anticancer drug set is available from the NCI Developmental Therapeutics Program. […] The stock solutions were prepared in dimethyl sulfoxide (DMSO, Sigma-Aldrich, St. Louis, MO, cat. D2650) at 800-fold the tested concentration and stored at -70 degrees C prior to their use. All drugs and investigational agents were tested over a range starting from a high concentration at or near the clinical Cmax and decreasing in half-log increments. If the clinical Cmax for an agent had not been determined, the highest concentration tested was 10 microM.
Cell Culture. All cells were maintained in an incubator at 37 degrees C and 5% CO2 with 95% humidity. The PDC lines were cultured according to standard operating procedures established by the NCI PDMR (https://pdmr.cancer.gov/sops/default.htm). All PDCs were thawed and cultured in Matrigel-coated flasks prepared with a working solution of 1X Ham's F-12 nutrient mix, without supplementation (Invitrogen, Waltham, MA, cat. 11765054), 100 U/mL penicillin-streptomycin (Invitrogen, cat. 15140122), and 2.5% Matrigel (Corning Inc., Corning, NY, cat. 354248) for the first three passages. The 354836-022-R-J1-PDC, 475296-252-R-J1-PDC, and 997726-040-R-J2-PDC lines were cultured in 6A media, which includes advanced DMEM/F-12 (Thermo Fisher Scientific, cat. 12634028), 10 mM HEPES (Thermo Fisher Scientific, cat. 15630080), 1X GlutaMAX supplement (Thermo Fisher Scientific, cat. 35050061), 0.1 mg/mL primocin (InvivoGen, San Diego, CA, cat. ant-pm-2), 10% defined fetal bovine serum, heat inactivated (HyClone Laboratories Inc., Logan, UT, cat. SH30070.03HI), 50% L-WRN conditioned media (ATCC, cat. CRL-3276), 1.25 mM N-Acetyl-L-cysteine (Sigma-Aldrich, cat. A9165), 10 mM nicotinamide (Sigma-Aldrich, cat. N0636), 1X B-27 supplement (Thermo Fisher Scientific, cat. 17504044), 1X N-2 supplement (Thermo Fisher Scientific, cat. 17502048), and 10 microM Y-27632 dihydrochloride (Tocris Bioscience, Bristol, United Kingdom, cat. 1254). The 624824-186-R-J2-PDC line was cultured in 6C/Colon 1B media, which includes all 6A media components plus 50 ng/mL human EGF recombinant protein (Thermo Fisher Scientific, cat. PHG0311). […]

Setting [1] is: compound alone, run of 05/09/2023.

Values joined by “and” are separate entries in the source; they are usually repeats but may differ in a detail not shown here. Identical values can stand only once.
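Note: spheroids exposed to agents for seven days before readout.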
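Throughout, for viability, T/C: percent viability relative to DMSO vehicle control taken as 100%.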

As for `C#Cc1c(F)ccc2cc(O)cc(-c3ncc4c(N5CC6CCC(C5)N6)nc(OCC56CCCN5CC(F)C6)nc4c3F)c12` (stereo not given), the viability, T/C by setting is: (compound 0.0316 µM) 96% [middle of 4 runs]; (compound 0.1 µM) 102% [middle of 4 runs]; (compound 0.316 µM) 95.6% [middle of 4 runs]; (compound 1 µM) 99.3% [middle of 4 runs]; (compound 3.16 µM) 87.5% [middle of 4 runs]; (compound 10 µM) 84.1% [middle of 4 runs]. For the same compound, under “curve of compound”, the IC50 was over 10 µM.
For the compound `C=CC(=O)N1CCN(c2nc(=O)n(-c3c(C)ccnc3C(C)C)c3nc(-c4c(O)cccc4F)c(F)cc23)C(C)C1` (stereo not given), the viability, T/C by setting is: (compound 0.0316 µM) 91.7% [middle of 4 runs]; (compound 0.1 µM) 99.3% [middle of 4 runs]; (compound 1 µM) 113% [middle of 4 runs]; (compound 3.16 µM) 99.9% [middle of 4 runs]. In addition, the IC50 (curve of compound) was over 10 µM.
For `CC(=O)c1c(C)c2cnc(Nc3ccc(N4CCNCC4)cn3)nc2n(C2CCCC2)c1=O`, the viability, T/C (compound 0.000316 µM) is 98.4% [middle of 4 runs]; the viability, T/C (compound 0.001 µM) is 98.5% [middle of 4 runs]; the viability, T/C (compound 0.00316 µM) was 85.1% [middle of 4 runs]; the viability, T/C (compound 0.01 µM) is 88.2% [middle of 4 runs]; the viability, T/C (compound 0.1 µM) was 91.2% [middle of 4 runs]. For the same compound, the IC50 (curve of compound) was over 0.1 µM.
Turning to `CC(C)NCC(C(=O)N1CCN(c2ncnc3c2C(C)CC3O)CC1)c1ccc(Cl)cc1` (stereo not given), the viability, T/C by setting is: (compound 0.0316 µM) 97.7% [middle of 4 runs]; (compound 0.316 µM) 94% [middle of 4 runs]; (compound 1 µM) 102% [middle of 4 runs]; (compound 3.16 µM) 94.5% [middle of 4 runs]. Further, for the setting “curve of compound”, the IC50 is over 10 µM.
For `CC(C)n1nc(-c2ccc3oc(N)nc3c2)c2c(N)ncnc21`, the viability, T/C is 94.8% [middle of 4 runs] (compound 0.001 µM); 89.4% [middle of 4 runs] (compound 0.00316 µM); 85.9% [middle of 4 runs] (compound 0.01 µM); 82.9% [middle of 4 runs] (compound 0.0316 µM); 58.7% [middle of 4 runs] (compound 0.1 µM). For the same compound, where the note is “curve of compound”, the half-inhibitory concentration (IC50) is over 0.1 µM.
Regarding `CC(Nc1ccc2c(c1)OCCn1cc(N3C(=O)OCC3C(F)F)nc1-2)C(N)=O` (stereo not given), the viability, T/C by setting is: (compound 0.1 µM) 80.2% [middle of 8 runs]; (compound 1 µM) 71.6% [middle of 8 runs]. Further, the half-maximal inhibitory concentration (IC50) (compound alone, run of 05/08/2023) is over 1 µM.
Regarding `CC(Nc1ncnc2nc[nH]c12)c1cc2cccc(Cl)c2c(=O)n1-c1ccccc1` (stereo not given), the viability, T/C reads like this: (compound 0.0316 µM) 93.9% [middle of 8 runs]; (compound 0.1 µM) 97.2% [middle of 8 runs]; (compound 0.316 µM) 95.8% [middle of 8 runs]; (compound 1 µM) 103% [middle of 8 runs]; (compound 3.16 µM) 100% [middle of 8 runs]; (compound 10 µM) 89.7% [middle of 8 runs]. Under setting [1], the IC50 was over 10 µM.
Consider `CC1(C)CCC(CN2CCN(c3ccc(C(=O)NS(=O)(=O)c4ccc(NCC5CCOCC5)c([N+](=O)[O-])c4)c(Oc4cnc5[nH]ccc5c4)c3)CC2)=C(c2ccc(Cl)cc2)C1`, for which the viability, T/C (compound 0.0316 µM) is 96.5% [middle of 4 runs]; the viability, T/C (compound 0.1 µM) is 104% [middle of 4 runs]; the viability, T/C (compound 3.16 µM) is 100% [middle of 4 runs].
As for `CC1(C)CCC(Nc2ncc(C(F)(F)F)c(-c3c[nH]c4c(P(C)(C)=O)c(C#N)ccc34)n2)CN1` (stereo not given), the viability, T/C (compound 0.0316 µM) was 66.7% [middle of 4 runs]; the viability, T/C (compound 0.316 µM) is 46.9% [middle of 4 runs]; the viability, T/C (compound 1 µM) was 26.5% [middle of 4 runs]; the viability, T/C (compound 3.16 µM) was 29.1% [middle of 4 runs]; the viability, T/C (compound 10 µM) is 5.67% [middle of 4 runs].
Turning to `CCCS(=O)(=O)Nc1ccc(F)c(C(=O)c2c[nH]c3ncc(-c4ccc(Cl)cc4)cc23)c1F`, the viability, T/C is, setting by setting: (compound 0.1 µM) 97.4% [middle of 4 runs]; (compound 0.316 µM) 97.2% [middle of 4 runs]; (compound 1 µM) 100% [middle of 4 runs]; (compound 10 µM) 2.53% [middle of 4 runs]. The IC50 (curve of compound) is 5.22 µM [middle of 4 runs].
As for `CCN1CCN(Cc2ccc(Nc3ncc(F)c(-c4cc(F)c5nc(C)n(C(C)C)c5c4)n3)nc2)CC1`, the viability, T/C runs as follows: (compound 0.01 µM) 88.5% [middle of 4 runs]; (compound 0.0316 µM) 85.6% [middle of 4 runs]; (compound 0.1 µM) 93.8% [middle of 4 runs]; (compound 0.316 µM) 58.9% [middle of 4 runs]; (compound 1 µM) 38.2% [middle of 4 runs].
For `CNC(=O)c1ccc(N2C(=S)N(c3ccc(C#N)c(C(F)(F)F)c3)C(=O)C2(C)C)cc1F`, the viability, T/C (compound 0.0316 µM) is 93% [middle of 4 runs]; the viability, T/C (compound 0.1 µM) was 94.5% [middle of 4 runs]; the viability, T/C (compound 0.316 µM) is 107% [middle of 4 runs]; the viability, T/C (compound 1 µM) was 93.1% [middle of 4 runs]; the viability, T/C (compound 3.16 µM) is 92.1% [middle of 4 runs]. In addition, the IC50 (curve of compound) is over 10 µM.
Consider `COc1c(OCCCN2CCOCC2)ccc2c3n(c(=NC(=O)c4cnc(N)nc4)nc12)CCN3`, for which the viability, T/C (compound 0.01 µM) is 84.7% [middle of 8 runs]; the viability, T/C (compound 0.0316 µM) is 93.6% [middle of 8 runs]; the viability, T/C (compound 0.316 µM) was 31.3% [middle of 8 runs]; the viability, T/C (compound 1 µM) was 11.8% [middle of 8 runs]. The IC50 under setting [1] is 185 nM [middle of 8 runs].
On to `Cc1nc(NC(=O)N2CCCC2C(N)=O)sc1-c1ccnc(C(C)(C)C(F)(F)F)c1` (stereo not given), for which the viability, T/C reads like this: (compound 0.0316 µM) 79.1% [middle of 7 runs]; (compound 0.1 µM) 88.6% [middle of 8 runs].
In the case of `Cn1cnc2c(F)c(Nc3ccc(Br)cc3Cl)c(C(=O)NOCCO)cc21`, the viability, T/C (compound 0.00949 µM) is 80.2% [middle of 4 runs]; the viability, T/C (compound 0.0949 µM) is 64.8% [middle of 4 runs]; the viability, T/C (compound 0.3 µM) was 50.3% [middle of 4 runs]; the viability, T/C (compound 0.949 µM) is 49.8% [middle of 4 runs]; the viability, T/C (compound 3 µM) is 30.5% [middle of 4 runs].
`Cn1ncc(Cl)c1-c1cc(C(=O)NC(CN)Cc2cccc(F)c2)sc1Cl` (stereo not given): the viability, T/C is, setting by setting: (compound 0.0316 µM) 85.8% [middle of 4 runs]; (compound 0.1 µM) 102% (2×) and 85.4% and 93.9%; (compound 0.316 µM) 86.2% [middle of 4 runs]; (compound 1 µM) 89.6% [middle of 4 runs]; (compound 3.16 µM) 63.6% [middle of 4 runs]; (compound 10 µM) 32.4% [middle of 4 runs]. Also, where the note is “curve of compound”, the IC50 is 4.62 µM [middle of 4 runs].
On to `Cn1nccc1Nc1nccc(-c2ccn(C(CO)c3ccc(Cl)c(F)c3)c(=O)c2)n1` (stereo not given), for which the viability, T/C by setting is: (compound 0.1 µM) 100% [middle of 4 runs]; (compound 10 µM) 71.2% [middle of 4 runs]. For the setting “curve of compound”, the IC50 was over 10 µM.
Consider `Cn1ncnc1[C@H]1c2n[nH]c(=O)c3cc(F)cc(c23)N[C@@H]1c1ccc(F)cc1`, for which the viability, T/C by setting is: (compound 0.000316 µM) 100% [middle of 4 runs]; (compound 0.001 µM) 99.6% [middle of 4 runs]; (compound 0.0316 µM) 103% [middle of 4 runs]; (compound 0.1 µM) 89% [middle of 4 runs]. The IC50 (curve of compound) is over 0.1 µM.
